Values quoted from earlier work as cited in patent US10406122B2 (priority 2011, dated 2019).

What was measured:
[1] = tested on: patients undergoing abdominal surgery; conditions: within the first 90 minutes of treatment; cited from earlier work
[2] = tested on: postoperative pain; conditions: after 4 to 6 hours, IV or IM intermittent injection; cited from earlier work
[3] = tested on: experienced opioid abusers; conditions: cited from earlier work
[4] = tramadol […] [100 mg] p.o., single dose; cited from earlier work

| Compound | responder rate (no or slight pain) [1] | reduction of pain intensity [2] | ratings of feel drug effect compared to placebo ([3]; IV over 5 minutes) | ratings of liking / ARCI-MBG scale ([3]; tramadol 100 and 200 mg IV, morphine 10 and 20 mg IV, over 5 minutes) | AUC [4] | Cmax [4] | Tmax [4] | t1/2 [4] |
| --- | --- | --- | --- | --- | --- | --- | --- | --- |
| CN1CC[C@]23c4c5ccc(O)c4O[C@H]2[C@@H](O)C=C[C@H]3[C@H]1C5 [morphine] | 81.2% | 69.8% | significantly increased ratings | significantly increased ratings |  |  |  |  |
| (+)-O-desmethyltramadol [(+)-M1] |  |  |  |  | 1258 ± 410 ng·h/mL | 147 ± 39 ng/mL | 1.6 ± 0.5 h | 6.0 ± 1.0 h |
